Measured values taken from patent publication EP1479388A1, “Ready to use gemcitabin solution concentrates” (STADA ARZNEIMITTEL AG, priority 2003, dated 2004).
Converted amounts (≈) assume the structure as drawn. Structures can show the parent of a compound that is named as a salt. Where two headings read alike, the source gives them in different places.

Tests used:
[1] = Saturation concentration of gemcitabine in aqueous-ethanolic solutions, HPLC (Beispiel 3); assay type: physicochemical; settings: interpolation (Polynom 6. Grades), ca. 66 Vol.% Ethanolanteil, pH 10 +/-0,5
Description: Um die Sättigungskonzentration von Gemcitabin in wässrig-ethanolischeh Lösungen zu ermitteln, wurden Gemcitabin-Lösungen mit verschiedenen Volumenanteilen an Ethanol hergestellt und analysiert.
Hierzu wurde Gemcitabinhydrochlorid im Ansatzbehälter vorgelegt, mit einer stöchiometrischen Menge an wässrig gelöstem Alkalisierungsmittel (1 N Natronlauge) versetzt, anschließend mit jeweils 80 % der in Vortests ermittelten erforderlichen Mengen an Wasser für Injektionszwecke als auch mit jeweils erforderlichen Mengen an Ethanol versetzt.
Die im Ansatz enthaltenen Bestandteile wurden anschließend unter 6-stündigem Rühren bei Raumtemperatur (19-23 °C) derart gelöst, dass ein ungelöster Bodensatz an Gemcitabinhydrochlorid im Ansatzbehälter verblieb. Der pH-Wert des Ansatzes wurde potentiometrisch bestimmt und erforderlichenfalls mit 1 N Natronlauge bzw. 1 N Salzsäure auf einen pH-Wert von 10 eingestellt, um mit diesem pH-Wert eine vollständige Umsetzung des Gemcitabinhydrochlorids zur gelösten Gemcitabinbase zu erzielen.
Der Ansatz wurde 24 Stunden bei 19-23 °C gelagert. Der pH-Wert wurde anschließend kontrolliert und nur solche klaren Überstände der Ansätze weiterverarbeitet, deren pH-Werte 10 +/- 0,5 betrugen. Diese wurden dann partikelfrei filtriert und der Gehalt an Gemcitabin per HPLC bestimmt.

[2] = Maximum solubility in 66 Vol.-% ethanol after dissolving at 35-45 °C and cooling, HPLC (Beispiel 4); assay type: physicochemical; settings: dissolved at 35-45 °C 6 h, cooled, 24 h at 19-23 °C
Description: Die maximale Löslichkeit von Gemcitabinhydrochlorid wurde unter weiterer Verwendung von 1 N Natronlauge, Wasser für Injektionszwecke und absolutem Ethanol, in als hierfür optimal erkanntem 66 Vol.-%-igem Anteil bei gesteigerten Lösungstemperaturen (35-45 °C, 6 Stunden Rühren) und anschließendem Abkühlen auf Raumtemperatur (19-23 °C) und 24-stündiger Lagerung bei 19-23 °C ermittelt. Hierbei wurde im partikelfreien Überstand der gelagerten Lösungen mittels HPLC ein Gehalt von 95,1 mg/ml Gemcitabin bzw. 108,3 mg/ml Gemcitabinhydrochlorid bestimmt.

[3] = cited from earlier work

Row | SMILES | solubility thermodynamic ([1]; 66 vol% aqueous ethanol, pH 10, organic solvent or mixture, read-out: Maximum der Gemcitabin-Löslichkeit) | solubility at 24 h ([2]; 66 vol% aqueous ethanol, organic solvent or mixture, read-out: maximale Löslichkeit (Gehalt im partikelfreien Überstand)) | Löslichkeit des Gemcitabins in Wasser ([3]; pH-Bereich von 2,7 bis 3,3) | Löslichkeit des Gemcitabins in Wasser ([3]; pH-Wert von 5) | Löslichkeit des Gemcitabins in Wasser ([3]; pH-Wert von 7) | Löslichkeit des Gemcitabins in Wasser ([3]; pH-Wert von 9) | Maximum der Gemcitabin-Löslichkeit [1] | maximale Löslichkeit (Gehalt im partikelfreien Überstand) ([2]; 1440 min)
1 | Nc1ccn([C@@H]2O[C@H](CO)[C@@H](O)C2(F)F)c(=O)n1 [Gemcitabin, 2'-Deoxy-2',2'-difluorcytidin] | 50 mg/mL (≈ 190 mM) | 95.1 mg/mL (≈ 361 mM) | ca. 38 mg/ml | 16,0 mg/ml | 15,3 mg/ml | 15,8 mg/ml |  | 
2 | Nc1ccn([C@@H]2O[C@H](CO)[C@@H](O)C2(F)F)c(=O)n1 [Gemcitabinhydrochlorid] |  |  |  |  |  |  | 55 mg/mL | 108,3 mg/ml
